Paper PMC6278366, “Synthesis and Evaluation of Anticancer Activities of Novel C-28 Guanidine-Functionalized Triterpene Acid Derivatives” (Molecules, 2018)
Structures can show the parent of a compound that is named as a salt.

What was measured:
[1] = tested on: Jurkat cells; experiment: Annexin V/7-AAD apoptosis assay by flow cytometry; assay type: cell-based, human; conditions: 48 h
Procedure: Apoptosis was determined by flow cytometric analysis of Annexin V and 7-aminoactinomycin D staining. Briefly, 200 μL of Guava Nexin reagent (Millipore, Bedford, MA, USA) was added to 5 × 10^5 cells in 200 μL, and the cells were incubated with the reagent for 20 min at room temperature in the dark. […] At the end of incubation, the cells were analyzed on NovoCyteTM 2000 FlowCytometry System (ACEA). Different states of cell death were defined as follows: normal cells are localized in the lower-left quadrant (Annexin V^−/PI^−); early apoptotic cells are in the lower-right quadrant (Annexin V^+/PI^−); late apoptotic cells and necrotic cells are in the upper-right quadrant (Annexin V^+/PI^+); and necrotic cells are in the upper-left quadrant (Annexin V^−/PI^+).
Figure 2 AnnexinV/7-AAD staining upon induction of apoptosis in Jurkat cells. […] Then, the cells were harvested, stained with Annexin V/7-AAD and analyzed by flow cytometry. The experiments were performed three times, and the results of the representative experiments are shown. The first cytogram represents an untreated cell sample (A); after incubation with dihydrobetulinic acid for 24 h (B) and for 48 h (C); after incubation with compound 15 for 24 h (D) and for 48 h (E); after incubation with compound 15c for 24 h (F) and for 48 h (G); after incubation with compound 18c for 24 h (H) and for 48 h (I); after incubation with compound 20c for 24 h (J) and for 48 h (K). Q7-1, necrotic cells; Q7-2, late apoptotic cells; Q7-3, living cells; Q7-4, early apoptotic cells. TEXT PRINTED IN THE PICTURE: (B) Dihydro BA: Q7-1 0.96% (59 μM); Q7-2 12.11% (59 μM); Q7-3 80.09% (59 μM); Q7-4 6.84% (59 μM) | (C) Dihydro BA: Q7-1 2.34% (59 μM); Q7-2 20.53% (59 μM); Q7-3 73.11% (59 μM); Q7-4 4.02% (59 μM) | (D) Compound 15: Q7-1 3.08% (4 μM); Q7-2 2.24% (4 μM); Q7-3 92.34% (4 μM); Q7-4 2.34% (4 μM) | (E) Compound 15: Q7-1 5.53% (4 μM); Q7-2 91.79% (4 μM); Q7-3 0.58% (4 μM); Q7-4 2.10% (4 μM) | (F) Compound 15c: Q7-1 1.51% (4 μM); Q7-2 2.64% (4 μM); Q7-3 84.92% (4 μM); Q7-4 10.93% (4 μM) | (G) Compound 15c: Q7-1 21.72% (4 μM); Q7-2 16.54% (4 μM); Q7-3 54.49% (4 μM); Q7-4 7.25% (4 μM) | (H) Compound 18c: Q7-1 1.48% (4 μM); Q7-2 3.70% (4 μM); Q7-3 91.14% (4 μM); Q7-4 3.67% (4 μM) | (I) Compound 18c: Q7-1 20.73% (4 μM); Q7-2 14.32% (4 μM); Q7-3 58.16% (4 μM); Q7-4 6.79% (4 μM) | (J) Compound 20c: Q7-1 3.78% (8 μM); Q7-2 1.72% (8 μM); Q7-3 92.26% (8 μM); Q7-4 2.24% (8 μM) | (K) Compound 20c: Q7-1 6.09% (8 μM); Q7-2 7.35% (8 μM); Q7-3 78.36% (8 μM); Q7-4 8.20% (8 μM) DOUBTS OF THE COPYIST ABOUT THIS PICTURE: Panel A (Control, untreated cells: Q7-1 3.75%, Q7-2 0.00%, Q7-3 96.24%, Q7-4 0.01%) left out of lines because it is not a substance / Dihydro BA panel B, Q7-3: 80.09% partly overlaid by plot points, 80.09 or 80.03 / Dihydro BA panel C, Q7-3: 73.11% partly overlaid by plot points / Compound 18c panel I, Q7-3: 58.16% small print, 58.16 or 58.18 / Compound 15 panel E, Q7-3: 0.58% small print, 0.58 or 0.56

[2] = tested on: HeLa (cervical cancer) cells; experiment: Cytotoxicity assay (7-AAD viability, flow cytometry), HeLa; assay type: cell-based, human; conditions: Homo sapiens, HeLa, mean ± SE, at least three experiments in duplicate; viable cells
Outline: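 Adherent HeLa, HEK293 and normal human fibroblasts (5 × 10⁴/well, DMEM with 10% FBS, 37 °C, 5% CO2) were treated with compounds at 1, 5, 10, 15, 30 and 60 μM. Viability was read as 7-AAD exclusion by flow cytometry after 15 min staining.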

[3] = at IC50 concentration (59 μM Dihydro BA; 4 μM 15, 15c, 18c; 8 μM 20c)

SMILES	late apoptotic cells (Q7-2) [1, 3]	IC50 [2]	early apoptotic cells (Q7-4) [1, 3]	living (vital) cells (Q7-3) [1, 3]	necrotic cells (Q7-1) [1, 3]	total number of apoptotic cells (early + late) ([1]; at IC50 concentration (59 μM Dihydro BA; 4 μM 15c; 8 μM 20c))
CC(=O)O[C@H]1CC[C@@]2(C)C(CC[C@]3(C)C2CCC2C4C(C(C)C)CC[C@]4(C(=O)OCC(N)(CO)CO)CC[C@]23C)C1(C)C (stereo partly drawn) [Compound 15, 3β-[2-Amino-3-hydroxy-2-(hydroxymethyl)propyl]-3-O-acetyl-lupane-28-oate]	91.7%	19 ± 0.49 µM	–	–	–	–
CC(=O)O[C@H]1CC[C@@]2(C)C(CC[C@]3(C)C2CCC2C4C(C(C)C)CC[C@]4(C(=O)OCC(CO)(CO)NC(=N)N)CC[C@]23C)C1(C)C (stereo partly drawn) [Compound 15c, 3β-[2-Guanidine-3-hydroxy-2-(hydroxymethyl)propyl]-3-O-acetyl-lupane-28-oate hydrochloride]	16.5%	14 ± 0.31 µM	7.2%	54.5%	21.7%	23.7%
